{"source": "paper PMC9822133", "about": "“Design, Synthesis and Antiproliferative Evaluation of Bis-Indole Derivatives with a Phenyl Linker: Focus on Autophagy” (Molecules, 2022)", "key": {"MDA-MB-231": {"system": "MDA-MB-231", "test": "MTT screening assay, MDA-MB-231", "format": "cell-based", "details": "Homo sapiens, 72 h incubation", "excerpt": "(§1) The ability of newly synthesized indole phytoalexins to suppress cell proliferation was screened in vitro on eight cancer cell lines including human colorectal carcinoma (Caco-2 and HCT116), human cervical cancer (HeLa), human breast adenocarcinoma (MCF-7, MDA-MB-231), human alveolar adenocarcinoma (A549) and human leukemic T cell lymphoma (Jurkat), and two non-cancer cell lines (MCF-10A, Cos-7).\n(§2) The cell lines used for this study were Caco-2 (human colorectal adenocarcinoma cell line, American Type Culture Collection, Manassas, VA, USA (ATCC)), HCT116 (human colorectal carcinoma cells European Collection of Authenticated Cell Cultures, Salisbury, UK (ECACC)), HeLa (human cervical tumor cells, ECACC), MCF-7 (human breast tumor cells, ECACC), MDA-MB-231 (human breast tumor cells, ATCC), A549 (human lung carcinoma cells, ATCC), BLM (human melanoma lung metastases, a gift from prof. K. Smetana, Institute of Anatomy, Charles University in Prague), Jurkat (human leukemia cell line, ECACC), Cos-7 (immortalized monkey kidney fibroblasts, ATCC) and MCF-10A (human mammary epithelial cells, ATCC). Caco-2, MCF-7, BLM, Cos-7 and A549 cells were cultured in Dulbecco’s Modified Eagle’s Medium (DMEM) with high glucose and sodium pyruvate (GE Healthcare, Piscataway, NJ, USA); HCT116 lines, HeLa, MDA-MB-231 and Jurkat were cultured in RPMI-1640 medium; and MCF10A cells were cultured in high glucose DMEM/F12 (Dulbecco’s Modified Eagle’s Medium F12). The media were enriched with 10% fetal bovine serum (FBS) and a 1% solution of a mixture of antibiotics and antimycotics 1× HyClone™ (GE Healthcare, Chicago, IL, USA). DMEM/F12 medium was supplemented with epidermal growth factor (EGF) (20 ng/mL final), hydrocortisone (0.5 μg/mL final) and insulin (10 μg/mL final) (Sigma-Aldrich Chemie, Steinheim, Germany). The cells were placed in an incubator at 37 °C with humidified air containing 5% CO2.\n(§3) The MTT assay is a colorimetric method used to quantify the metabolic activity of cells. MTT (3-(4,5-di-methylthiazol-2-yl)2,5-diphenyltetrazolium bromide) (Sigma-Aldrich Chemie, Steinheim, Germany) is reduced by oxidoreductases in the cytosol of cells to light-absorbing formazan, the presence of which can be measured spectrophotometrically and determines the half-maximal inhibitory concentration (IC50). A549 cells were seeded in […] culture plates at a density of 5 × 10^3 per well. […]\n(§4) We also incubated the cells with chloroquine at concentrations of 5–20 µM, which was added 1 h before the addition of the test substance, and cisplatin at concentrations of 3–10 µM. […] After 24 h, the absorbance was measured at a wavelength of 540 nm using an automated Cytation™ 3 Cell Imaging Multi-Mode Reader (Biotek, Winooski, VT, USA). […]"}, "Cos-7": {"system": "Cos-7", "test": "MTT screening assay, Cos-7 non-cancer cells", "format": "cell-based, monkey", "details": "Primates, 72 h incubation", "excerpt": "as §1, §2, §3, §4"}, "p62/SQSTM1": {"system": "p62/SQSTM1", "test": "Western blot, p62", "format": "cell-based, human", "details": "A549, 24, 48, 72 h, p < 0.001 vs DMSO", "excerpt": "Protein p62, also known as sequestosome 1, is a multifunctional, classic autophagy receptor, considered together with LC3AB as an important marker of ongoing autophagic flux. It is involved in cell signaling, metabolism, oxidative stress and cell death. Its main function is the degradation of misfolded proteins through the ubiquitin–proteasome system (UPS) and autophagy, thereby maintaining intracellular proteostasis. P62 binds the autophagosomal membrane protein LC3 and brings p62-containing cytoplasmic contents to the autophagosome for degradation. […] This protein is normally degraded during autophagy after interaction with LC3 II [26]. On the other hand, accumulation of p62 has also been cited in cancer cells exposed to a variety of potential anticancer compounds [27, 28, 29].\n(§5) A549 cells were seeded on Petri dishes (55 cm^2) at a density of 1 × 10^6 and allowed to culture in the medium. After 24 h, the test substance was added, and the cells were incubated for 24, 48 and 72 h. […] After lysis, the cells were sonicated, and the protein concentration in the samples was quantified using the Pierce® BCA Protein Assay Kit (Thermo Scientific, Rockford, IL, USA) and measured by an automated Cytation™ 3 Cell Imaging Multi-Mode Reader (Biotek) at a wavelength of 570 nm. […]"}, "LC3A/B": {"system": "LC3A/B", "test": "Western blot, LC3A/B", "format": "cell-based, human", "details": "A549, all time periods", "excerpt": "LC3A/B, a microtubule-associated protein 1A/1B-light chain 3 (LC3), is a soluble intracellular protein. After synthesis of the pro-LC3 protein, this protein is first cleaved to form its cytosolic form known as LC3-I. The cytosolic form of LC3 (LC3-I) conjugates with phosphatidylethanolamine to form the LC3-phosphatidylethanolamine conjugate (LC3-II), which is recruited to autophagosomal membranes. After the formation of autophagosomes, their fusion with lysosomes occurs, autolysosomes are formed, and intra-autophagosomal material (cytoplasmic components including cytosolic proteins and organelles) is degraded by lysosomal hydrolases. Changes in the levels of the autophagosomal marker LC3-II are considered a sign of ongoing autophagy, and its lysosomal turnover thus reflects autophagic activity. […] Association of LC3A/B up-regulation and autophagy induction has also been referred previously.\nas §5"}}}
{"compound": "CC(C)(C)OC(=O)n1cc(CNC(=O)Nc2ccc(NC(=O)NCc3cn(C(=O)OC(C)(C)C)c4ccccc34)cc2)c2ccccc21", "note": "[Compound 49, N,N′-(1,4-phenylene)bis{N′-[1-(tert-butoxycarbonyl)indol-3-yl]methyl (urea)}]", "values": [{"measurement": "IC50", "setting": "MDA-MB-231", "result": "> 100", "unit": "µM"}, {"measurement": "IC50", "setting": "Cos-7", "result": "> 100", "unit": "µM"}, {"measurement": "p62 expression", "setting": "p62/SQSTM1", "result": "significant increase"}, {"measurement": "LC3A/B protein expression", "setting": "LC3A/B", "result": "significantly increased"}]}
